Measurements taken from patent US20220054465A1, “(PYRIDIN-2-YL)AMINE DERIVATIVES AS TGF-BETA R1 (ALK5) INHIBITORS FOR THE TREATMENT OF CANCER” (Nexys Therapeutics, Inc., priority 2018, published 2022).

Tested on: HEK-Blue TGFβ cell
Assay: HEK-Blue TGFβ cellular reporter gene assay (SEAP readout)
Type: cell-based
Conditions: HEK-Blue TGFβ cells stimulated with TGF-β, 22-23 h incubation, SEAP read at 630 nm
Protocol: HEK-Blue TGFβ Cellular Reporter Gene Assay:
HEK-Blue TGFβ cell was purchased from Invivogen. Cell suspension of 2.5×10^5 cells/ml was prepared using Test Medium (DMEM containing 0.5% v/v heat-inactivated FBS). TGF-β working solution (6 ng/ml) was obtained through diluting TGF-β stock solution (10 μg/ml) by Test Medium before use. Eight different concentrations of all compounds were obtained by 3× gradient dilution method using TGF-β working solution. Add 100 μl of Test Medium (Vehicle) or test article or TGF-β working solution per well of a flat-bottom 96-well plate. Add 100 μl of HEK-Blue TGF-β cell suspension per well. Incubate the plate at 37° C. in a CO2 incubator for 22-23 h. Add 150 μl of resuspended QUANTI-Blue per well of a new flat-bottom 96-well plate. Add 30 μl of induced HEK-Blue TGF-β cells supernatant. Avoid pipetting at the bottom of wells. Incubate the plate at 37° C. incubator for 30-40 min. Determine secreted embryonic alkaline phosphatase (SEAP) levels using a spectrophotometer at 630 nm.
The inhibition was calculated using the equation: […]

Row | SMILES | IC50
1 | Cc1nc(-c2ccccc2)ccc1Oc1ccnc(Nc2cccc(C(C)(C)c3nn[nH]n3)c2)c1 [Example 61] | 190 nM
2 | Cc1ccc(Oc2ccnc(Nc3cccc(CCc4nn[nH]n4)c3)c2)c(-c2cnn(C)c2)n1 [Example 62] | 2110 nM
3 | Cc1cccc(-c2nc(C)ccc2Oc2ccnc(Nc3cccc(CCc4nn[nH]n4)c3)c2)n1 [Example 63] | 720 nM
4 | Cc1ccc(Oc2ccnc(Nc3cccc(CCc4nn[nH]n4)c3)c2)c(-c2ncccc2C)n1 [Example 64] | 2600 nM
5 | Cc1ccc(Oc2ccnc(Nc3ccc(C(F)(F)F)c(CCc4nn[nH]n4)c3)c2)c(-c2ccccn2)n1 [Example 65] | 520 nM
6 | Cc1ccc(Oc2ccnc(Nc3cccc(CCC(=O)O)c3)c2)c(-c2ccccc2)n1 [Example 66, 3-(3-((4-((6-methyl-2-phenylpyridin-3-yl)oxy)pyridin-2-yl)amino)phenyl)propanoic acid] | 24 nM
7 | c1cc(CCc2nn[nH]n2)cc(Nc2cc(Oc3cn(C4CC4)nc3C3CCOCC3)ccn2)c1 [Example 67, N-(3-(2-(2H-tetrazol-5-yl)ethyl)phenyl)-4-((1-cyclopropyl-3-(tetrahydro-2H-pyran-4-yl)-1H-pyrazol-4-yl)oxy)pyridin-2-amine] | 2650 nM
8 | O=C(O)CCc1cccc(Nc2cc(Oc3cn(C4CC4)nc3C3CCOCC3)ccn2)c1 [Example 68, 3-(3-((4-((1-cyclopropyl-3-(tetrahydro-2H-pyran-4-yl)-1H-pyrazol-4-yl)oxy)pyridin-2-yl)amino)phenyl)propanoic acid] | 740 nM
9 | O=C(O)CCc1cc(Nc2cc(Oc3cn(C4CC4)nc3C3CCOCC3)ccn2)ccn1 [Example 69] | > 10000 nM
10 | Cc1cc(Oc2ccnc(Nc3cccc(C(C)(C)C(=O)O)c3)c2)c(-c2ccccn2)nc1C [Example 71, 2-(3-((4-((5,6-dimethyl-[2,2′-bipyridin]-3-yl)oxy)pyridin-2-yl)amino)phenyl)-2-methylpropanoic acid] | 140 nM
11 | Cc1ccc(Oc2ccnc(Nc3cccc(C(C)(C)C(=O)O)c3)c2)c(-c2ccccn2)n1 [Example 72, 2-methyl-2-(3-((4-((6-methyl-[2,2′-bipyridin]-3-yl)oxy)pyridin-2-yl)amino)phenyl)propanoic acid] | 180 nM
12 | Cc1ccc(Oc2ccnc(Nc3cccc(C(C)(C)C(=O)O)c3)c2)c(C)n1 [Example 73] | 140 nM
13 | Cc1nc(-c2ccccc2)ccc1Oc1ccnc(Nc2cccc(C(C)(C)C(=O)O)c2)c1 [Example 75] | 8120 nM
14 | Cc1cc(Oc2ccnc(Nc3cccc(OCC(=O)O)c3)c2)c(-c2ccccn2)nc1C [Example 76] | > 10000 nM
15 | Cc1ccc(Oc2ccnc(Nc3cccc(C4(C(=O)O)CC4)c3)c2)c(-c2ccccc2)n1 [Example 77, 1-(3-((4-((6-methyl-2-phenylpyridin-3-yl)oxy)pyridin-2-yl)amino)phenyl)cyclopropane-1-carboxylic acid] | 80 nM
16 | Cc1ccc(Oc2ccnc(Nc3cccc(C(C)(C)C(=O)O)c3)c2)c(-c2cccc(Cl)c2)n1 [Example 78] | 110 nM
17 | Cc1ccc(Oc2ccnc(Nc3cccc(C(C)(C)C(=O)O)c3)c2)c(-c2ccc(Cl)cc2)n1 [Example 79] | 180 nM
18 | Cc1ccc(Oc2ccnc(Nc3cccc(C(C)(C)C(=O)O)c3)c2)c(-c2ccccc2Cl)n1 [Example 80] | 110 nM
19 | CCc1nc(C)c(Oc2ccnc(Nc3cccc(C(C)(C)C(=O)O)c3)c2)cc1C [Example 82] | 18 nM
20 | CCc1nc(C)c(Oc2ccnc(Nc3cccc(C(C)(C)C(=O)O)c3)c2)cc1Cl [Example 83] | 35 nM
21 | CCc1ccc(Oc2ccnc(Nc3cccc(C(C)(C)C(=O)O)c3)c2)c(-c2ccccn2)n1 [Example 84] | 55 nM
22 | CCc1nc(-c2ccccn2)c(Oc2ccnc(Nc3cccc(C(C)(C)C(=O)O)c3)c2)cc1C [Example 85] | 44 nM
23 | COc1ccccc1-c1nc(C)ccc1Oc1ccnc(Nc2cccc(C(C)(C)C(=O)O)c2)c1 [Example 86] | 240 nM
24 | COc1cccc(-c2nc(C)ccc2Oc2ccnc(Nc3cccc(C(C)(C)C(=O)O)c3)c2)c1 [Example 87] | 94 nM
